Data on 27 compounds can be found in US10898504B2, “Substituted nucleoside analogues for use as PRMT5 inhibitors” (Janssen Pharmaceutica NV, priority 2016, dated 2021).

Values joined by “and” are separate entries in the source; they are usually repeats but may differ in a detail not shown here. Equal entries are not always repeated.

For assay [1], the system named is A549 cells. Kind of assay: PD assay (Assay 2): inhibition of nuclear symmetric Arginine dimethylation (SYM10 immunohistochemistry) in A549 cells. The format is cell-based. Particulars: individual measurements shown; for IC50: Homo sapiens, A549, PD assay in A549 cells, read-out: pIC50 Assay 2 (converted); for pIC50 Assay 2: PD assay in A549 cells. How it is done:
EXPERIMENTAL PROCEDURE PD ASSAY (ASSAY 2)
A549 cells (ATCC, Cat #CCL-185) were cultured in Dulbecco's Modified Eagle's Medium (DMEM) (Sigma, Cat #D5796), supplemented with 10% Fetal Calf Serum (FCS)(HyClone™, Cat #SV30160.03), 100 mM Sodium Pyruvate (Sigma, Cat #S8636), 200 mM L-Glutamine (Sigma, Cat #G7513) and 50 mg/mL Gentamycing (Gibco, Cat #15750-037).
Reagents used for buffers were purchased: Dulbecco's phosphate buffered saline (DPBS) without Ca/Mg (Sigma, Cat #D8537), phosphate buffered saline (PBS) 10× (Roche, Cat #11 666 789 001), Formalin solution 10% (Sigma, HT50-1-128-4L), MeOH 100% (Sigma, Cat #32213-2.5L), Triton X-100 (Acros, Cat #215680010), Bovine Serum Albumin (BSA) (Sigma, Cat #A2153), Alexa fluor 488 goat anti-rabbit antibody (Life Technologies, Cat #A11034), HCS CellMask Deep Red Stain (Life Technologies, Cat #H32721), Hoechst Stain (Life Technologies, Cat #33258), Anti-dimethyl-Arginine, sym (SYM10) antibody (Millipore, 07-412).
Immunohistochemistry Procedure
Cells were plated at 400 cells/40 μL/well in 384 well black plates μclear bottom (Perkin Elmer) and overnight incubated at 37° C., 5% CO2. The IC50 Studies were performed using nine point dosing series ranging from 10 μM to […] for each compound. 80 nL of the respective dilution of the compounds was added using the Labcyte POD 810 (Labcyte) reaching a final DMSO concentration of 0.2% in cell culture. After an incubation period of 48 h at 37° C. and 5% CO2, cells were fixed in 10% formalin solution for 15 min at r.t. and 20 min in ice-cold MeOH, after which they were washed 3× in DPBS. Subsequently, the cells were blocked for 1 h in blocking buffer (PBS+1% BSA and 0.5% Triton X-100) and incubated overnight at 4° C. with the SYM10 antibody diluted 1/2000 in blocking buffer. The cells were washed 3× with washing buffer (PBS+0.1% Triton X-100) and incubated with the Alexa fluor 488 goat anti-rabbit antibody diluted 1/200 in blocking buffer for 1 h at r.t. Subsequently, they were washed 3× with washing buffer and incubated for 30 min at r.t. with PBS containing a 1/5000 dilution of Hoechst Stain and a 1/5000 dilution of the HCS CellMask Deep Red Stain. After a final wash with PBS, the plates were imaged using the 10×W lens of the Opera® system (Perkin Elmer Life Sciences) using following settings (values in nm):
In the above equations, the following variable names are use: […]
In the above equations, the following controls were used for normalization: […]
Low control: minimum level of symmetrically dimethylated Arginines (cells treated with reference compound at 10 μM).
High control: maximum level of symmetrically dimethylated Arginines (DMSO treated cells).
IC50 and pIC50 (−log IC50) values were calculated using the appropriate software.
pIC50 values (Co. No. means compound number; n.d. means not determined).

In assay [2] the target is T1, PRMT5-MEP50 enzyme (Homo sapiens, UniProt O14744).
T1 construct: One virus expresses full length human PRMT5 with Flag-tag at N-terminus
The assay is described as follows: In vitro assay (Assay 1): PRMT5-MEP50 high throughput mass spectrometer assay, inhibition of SAH formation. The format is biochemical. Conditions: individual measurements shown, read-out: pIC50 Assay 1 (converted). An excerpt:
EXPERIMENTAL PROCEDURES IN VITRO ASSAY (ASSAY 1)
PRMT5-MEP50 enzyme was purchased from Charles River (Argenta). The enzyme complex was produced in insect cells (Sf9) infected simultaneously with two baculoviruses. One virus expresses full length human PRMT5 with Flag-tag at N-terminus, the second virus expresses full length MEP50 with His6-TEV cleavage at N-terminus. The protein was affinity purified using anti-Flag (M2) beads eluted with 3×FLAG peptide, followed by His-Select eluted with 0.5M imidazole. Eluted protein was then dialysed against tris-buffered saline (TBS) (pH 8.0) containing 20% glycerol and 3 mM dithiothreitol (DTT).
Full-length untagged human recombinant histone H2A (residues 1-130, Genbank Accession #NM_021052, MW=14.1 kDa) expressed in E. coli was purchased from Reaction Biology Corporation, Cat #HMT-11-146. Reagents used for making reaction buffer or stopping reaction were purchased including Tris base (Sigma Cat #T-1503), NaCl (Sigma Cat #RGF-3270), MgCl2 (Sigma Cat #M0250), DTT (Invitrogen Cat #15508-013) and Formic Acid (Riedel deHaen, Cat #33015)
High Throughput Mass Spectrometer Assay
PRMT5 catalyzes the sequential methylations of the terminal nitrogen atoms on the guanidine groups of arginine residues within proteins using co-substrate S-adenosyl-L-methionine (AdoMet, SAM), forming mono-methyl (MMA), symmetric-dimethyl arginine (sDMA) and S-adenosyl-L-homocysteine (AdoHcy, SAH). The enzyme activity was determined by following the product SAH formation using high throughput mass spectrometry (Agilent Rapidfire 300 System coupled to a Sciex 4000 series QTrapm triple-quad MS/MS). The reaction buffer was 20 mM Tris-HC, pH 8.5, 50 mM NaCl, 5 mM MgCl2 and 1 mM DTT. The reaction activity was stopped using 1% formic acid (final concentration).
The IC50 Studies were performed using eleven point dosing series made for each compound by serially diluted 1:2 in dimethyl sulfoxide (DMSO), with point 12 being a DMSO control. Compounds were first spotted to plates, and followed by addition of 2 μM SAM and 0.6 μM H2A (histone H2A) solution mixture. The same volume of enzyme solution was added to initiate the enzymatic reactions. The final concentrations of the reaction are at 1 μM SAM, 0.3 μM H2A and 10 nM enzyme. The reaction was incubated at 30° C. for 60 minutes (min) and then quenched by addition of formic acid to a final concentration of 1%. The inhibitions of SAH formation in the presence of compounds were calculated as a percentage of the control relative to the uninhibited reaction as a function of inhibitor concentration. The data were fit as follows: Y=Bottom+(Top−Bottom)/(1+10^((log IC50−X)*h))
where IC50 is the inhibitor concentration (same unit as X) at 50% inhibition and h is the Hill slope. Y is percent of inhibition, X is log of compound concentration. Bottom and Top are the plateaus in same units as Y.

T1 sequence (O14744 whole entry): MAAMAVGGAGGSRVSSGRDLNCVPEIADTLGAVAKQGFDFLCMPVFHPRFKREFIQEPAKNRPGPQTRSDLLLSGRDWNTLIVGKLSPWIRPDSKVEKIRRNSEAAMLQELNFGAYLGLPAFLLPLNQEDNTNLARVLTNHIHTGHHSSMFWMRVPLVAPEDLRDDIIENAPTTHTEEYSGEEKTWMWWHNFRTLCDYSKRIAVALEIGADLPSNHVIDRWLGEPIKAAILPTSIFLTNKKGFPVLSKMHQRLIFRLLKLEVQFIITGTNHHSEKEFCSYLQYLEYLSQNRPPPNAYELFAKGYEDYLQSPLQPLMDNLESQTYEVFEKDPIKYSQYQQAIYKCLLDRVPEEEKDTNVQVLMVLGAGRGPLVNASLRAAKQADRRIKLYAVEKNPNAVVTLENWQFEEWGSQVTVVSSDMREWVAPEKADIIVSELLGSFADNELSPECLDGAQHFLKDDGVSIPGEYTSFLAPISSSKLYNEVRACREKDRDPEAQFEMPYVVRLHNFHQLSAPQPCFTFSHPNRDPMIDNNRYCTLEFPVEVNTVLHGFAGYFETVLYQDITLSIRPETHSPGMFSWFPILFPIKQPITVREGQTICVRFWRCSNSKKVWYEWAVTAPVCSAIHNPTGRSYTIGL
T1 sequence (Q9BQA1 whole entry partner): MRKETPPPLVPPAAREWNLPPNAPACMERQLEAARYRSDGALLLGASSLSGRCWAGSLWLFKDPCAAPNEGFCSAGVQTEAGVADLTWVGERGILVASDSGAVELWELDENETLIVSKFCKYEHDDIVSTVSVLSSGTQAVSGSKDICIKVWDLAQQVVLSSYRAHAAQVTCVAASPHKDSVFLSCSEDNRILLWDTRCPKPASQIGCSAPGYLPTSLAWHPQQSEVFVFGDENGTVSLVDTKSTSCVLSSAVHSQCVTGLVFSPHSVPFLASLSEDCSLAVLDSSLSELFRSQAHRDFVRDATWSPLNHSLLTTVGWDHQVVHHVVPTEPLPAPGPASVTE

On to `Nc1ncnc2c1ccn2[C@@H]1O[C@H](CN2CCCC3(CNCCO3)C2)[C@@H](O)[C@H]1O` (single isomer, unassigned) [Compound 33], for which the IC50 was 12 µM in assay [1] and 0.24 µM in assay [2].
Turning to `Nc1ncnc2c1ccn2[C@@H]1O[C@H](CN2CCCC3(CNCCO3)C2)[C@@H](O)[C@H]1O` (single isomer, unassigned) [Compound 34], the “pIC50 Assay 2” value in assay [1] is <4.7. In addition, the IC50 in assay [2] was 3.98 µM.
Take `Nc1ncnc2c1ccn2[C@@H]1O[C@H](CN2CCCC3(CCCCN3)C2)[C@@H](O)[C@H]1O` (single isomer, unassigned) [Compound 35]: the IC50 is ~6.17 µM in assay [1] and 0.105 µM in assay [2].
Take `Nc1ncnc2c1ccn2[C@@H]1O[C@H](CN2CCCC3(CCCCN3)C2)[C@@H](O)[C@H]1O` (single isomer, unassigned) [Compound 36]: the “pIC50 Assay 2” value in assay [1] is reported as ~5.13. Besides, in assay [2], the IC50 is 1.91 µM.
Take `Nc1ncnc2c1ccn2[C@@H]1O[C@H](CN2CCCC3(CCCN3)C2)[C@@H](O)[C@H]1O` (single isomer, unassigned) [Compound 39]: the figures for the IC50 in assay [1] and in assay [2] were 11.2 µM and 0.0676 µM, respectively.
Consider `Nc1ncnc2c1ccn2[C@@H]1O[C@H](CN2CCOCC23CCNC3)[C@@H](O)[C@H]1O` (single isomer, unassigned) [Compound 110], for which the IC50 in assay [1] was > 10 µM; in assay [2], 1.23 µM.
`Nc1ncnc2c1ccn2[C@@H]1O[C@H](CN2CCOCC23CCNC3)[C@@H](O)[C@H]1O` (single isomer, unassigned) [Compound 111]: the “pIC50 Assay 2” value in assay [1] is ~5.26. In addition, the IC50 in assay [2] is 0.174 µM.
With `Nc1ncnc2c1ccn2[C@@H]1O[C@H](CN2C(C(F)(F)F)CCC23CCNCC3)[C@@H](O)[C@H]1O` (single isomer, unassigned) [Compound 115], the IC50 is ~1.66 µM in assay [1] and 0.0234 µM in assay [2].
`Nc1ncnc2c1ccn2[C@@H]1O[C@H](CN2C(C(F)(F)F)CCC23CCNCC3)[C@@H](O)[C@H]1O` (single isomer, unassigned) [Compound 116]: the “pIC50 Assay 2” value in assay [1] is 5.53. In addition, the IC50 in assay [2] is 0.151 µM.
As to `Nc1ncnc2c1ccn2[C@@H]1O[C@H](CN2CCCC23CCCNCC3)[C@@H](O)[C@H]1O` (single isomer, unassigned) [Compound 117], the IC50 is 0.501 µM in assay [1] and 0.0339 µM in assay [2].
For the compound `Nc1ncnc2c1ccn2[C@@H]1O[C@H](CN2CCCC23CCCNCC3)[C@@H](O)[C@H]1O` (single isomer, unassigned) [Compound 118], the “pIC50 Assay 2” value in assay [1] came to 6.29. Moreover, in assay [2], the IC50 is 0.0355 µM.
Taken in the same sequence, the figures for `Nc1ncnc2c1ccn2[C@@H]1O[C@H](CN2CCCC23CCCNC3)[C@@H](O)[C@H]1O` (single isomer, unassigned) [Compound 119] were ~5.97 and 0.155 µM.
Take `Nc1ncnc2c1ccn2[C@@H]1O[C@H](CN2CCCC23CCCNC3)[C@@H](O)[C@H]1O` (single isomer, unassigned) [Compound 120]: in assay [1], the “pIC50 Assay 2” value is listed as <5. The IC50 in assay [2] is 2.29 µM.
With `CN1CCC2(CCCN2C[C@H]2O[C@@H](n3cnc4c(N)ncnc43)[C@H](O)[C@@H]2O)CC1` [Compound 1], the IC50 in assay [1] was 7.24 µM; in assay [2], 0.219 µM.
As for `CN1CC2(CCCN2C[C@H]2O[C@@H](n3cnc4c(N)ncnc43)[C@H](O)[C@@H]2O)C1` [Compound 2], the IC50 in assay [1] is > 10 µM; in assay [2] it was 0.776 µM.
Turning to `CN1CCC2(CCN2C[C@H]2O[C@@H](n3cnc4c(N)ncnc43)[C@H](O)[C@@H]2O)C1` (some centres unmarked) [Compound 3], the IC50 in assay [1] is > 10 µM; in assay [2], 1.66 µM.
Regarding `CN1CCC12CCN(C[C@H]1O[C@@H](n3cnc4c(N)ncnc43)[C@H](O)[C@@H]1O)C2` (some centres unmarked) [Compound 4], the IC50 was > 10 µM in assay [1] and 2.29 µM in assay [2].
`CN1CC2(CCN(C[C@H]3O[C@@H](n4cnc5c(N)ncnc54)[C@H](O)[C@@H]3O)C2)C1` [Compound 5]: the values for the IC50 in assay [1] and in assay [2] were > 10 µM and 8.13 µM, respectively.
In the case of `CN1CCC2(C1)CN(C[C@H]1O[C@@H](n3cnc4c(N)ncnc43)[C@H](O)[C@@H]1O)C2` [Compound 6], the IC50 in assay [2] was > 100 µM.
With `CN1CCCC12CN(C[C@H]1O[C@@H](n3cnc4c(N)ncnc43)[C@H](O)[C@@H]1O)C2` [Compound 7], the IC50 in assay [1] is > 10 µM; in assay [2], 66.1 µM.
Regarding `CN1CC2(CCCN(C[C@H]3O[C@@H](n4cnc5c(N)ncnc54)[C@H](O)[C@@H]3O)C2)C1` [Compound 8], the IC50 in assay [1] is 1.51 µM; in assay [2] it was 0.155 µM.
For `CN1CCC2(CC1)CCN2C[C@H]1O[C@@H](n2cnc3c(N)ncnc32)[C@H](O)[C@@H]1O` [Compound 9], the IC50 in assay [1] was > 10 µM; in assay [2], 0.776 µM.
As for `CN1CCCCC12CN(C[C@H]1O[C@@H](n3cnc4c(N)ncnc43)[C@H](O)[C@@H]1O)C2` [Compound 10], the IC50 in assay [1] was > 10 µM; in assay [2], 38.9 µM and 24.5 µM.
With `CN1CC2(CCCCN2C[C@H]2O[C@@H](n3cnc4c(N)ncnc43)[C@H](O)[C@@H]2O)C1` [Compound 11], the IC50 in assay [1] is > 10 µM; in assay [2], 12.3 µM.
As to `CN1CCC12CN(C[C@H]1O[C@@H](n3cnc4c(N)ncnc43)[C@H](O)[C@@H]1O)C2` [Compound 17], the IC50 in assay [2] was > 100 µM.
`CC(C)C(=O)O[C@@H]1[C@H](OC(=O)C(C)C)[C@@H](CN2CC(F)(F)CC23CCN(C)CC3)O[C@H]1n1ccc2c(N)ncnc21` [Compound 101]: the “pIC50 Assay 2” value in assay [1] is 7.06 and 7.08.
With `Nc1ncnc2c1ccn2[C@@H]1O[C@H](CN2CCCC2(CN2CCCC2)C(F)(F)F)[C@@H](O)[C@H]1O` (some centres unmarked) [Compound 189], the IC50 in assay [2] is > 10 µM.
